Test results: ChEMBL document CHEMBL4627399, “Synthesis and Structure-Activity Relationships of 5'-Aryl-14-alkoxypyridomorphinans: Identification of a μ Opioid Receptor Agonist/δ Opioid Receptor Antagonist Ligand with Systemic Antinociceptive Activity and Diminished Opioid Side Effects” (J Med Chem, 2020)
Activity calls are given as the source filed them. The rule behind the calls is not given here.

Columns and labels:
Mu-type opioid receptor [1] = target: T1, Mu-type opioid receptor (Homo sapiens, UniProt P35372); assay: biochemical; assay type: cell-based, CHO
[2] = target: T2, Delta-type opioid receptor (Homo sapiens, UniProt P41143); assay: Displacement of [3H]-diprenorphine from human delta opioid receptor expressed in CHO cell membranes incubated for 1 hr by competition radioligand binding assay
[3] = target: T3, Kappa-type opioid receptor (Homo sapiens, UniProt P41145); assay: Displacement of [3H]-diprenorphine from human kappa opioid receptor expressed in CHO cell membranes incubated for 1 hr by competition radioligand binding assay
[4] = target: T2, Delta-type opioid receptor; assay: Antagonist activity at human delta opioid receptor expressed in CHO cell membranes assessed as reduction in SNC80-induced [35S]GTPgammaS binding preincubated for 5 mins followed by SNC80 addition and measured after 1 hr; assay type: functional
[5] = Stability in human liver microsomes at 1 uM measured up to 60 mins by LC-MS/MS analysis; assay type: ADME, Microsome; details: 1 h
Mu-type opioid receptor [6] = target: T1, Mu-type opioid receptor; assay: biochemical
[7] = target: T3, Kappa-type opioid receptor; assay: Agonist activity at human kappa opioid receptor expressed in CHO cell membranes incubated for 1 hr by [35S]GTPgammaS binding assay; assay type: functional
[8] = target: T3, Kappa-type opioid receptor; assay: Agonist activity at human kappa opioid receptor expressed in CHO cell membranes assessed as stimulation of [35S]GTPgammaS binding incubated for 1 hr relative to […]; assay type: functional

Oc1ccc2c3c1O[C@H]1c4ncc(-c5ccccc5C5CC5)cc4C[C@@]4(OCCCc5ccccc5)[C@@H](C2)N(CC2CC2)CC[C@]314
Ki (Mu-type opioid receptor [1]): 0.135 µM
Ki [2]: 0.0641 µM
Ki [3]: 0.175 µM
IC50 [4]: 0.00248 µM
Stability [5]: Stable
EC50 (Mu-type opioid receptor [6]): 0.141 µM

Oc1ccc2c3c1O[C@H]1c4ncc(-c5ccc(Br)cc5)cc4C[C@@]4(OCCCc5ccccc5)[C@@H](C2)N(CC2CC2)CC[C@]314
Ki [2]: 0.0209 µM
Ki [3]: 0.0759 µM
IC50 [4]: < 0.00051 µM
EC50 ([7]; read-out: EC50): 0.00552 µM
Stability [5]: Stable

Oc1ccc2c3c1O[C@H]1c4ncc(-c5ccc(F)cc5F)cc4C[C@@]4(OCCCc5ccccc5)[C@@H](C2)N(CC2CC2)CC[C@]314
Ki (Mu-type opioid receptor [1]): 0.171 µM
Ki [2]: 0.0537 µM
Ki [3]: 0.0359 µM
IC50 [4]: 0.0032 µM
Stability [5]: Stable
EC50 (Mu-type opioid receptor [6]): 0.13 µM

Cc1cc(-c2cnc3c(c2)C[C@@]2(OCCCc4ccccc4)[C@H]4Cc5ccc(O)c6c5[C@@]2(CCN4CC2CC2)[C@H]3O6)ccn1
Ki (Mu-type opioid receptor [1]): 0.00105 µM
Ki [2]: 0.0635 µM
Ki [3]: < 0.00051 µM
IC50 [4]: 0.00039 µM
EC50 ([7]; cho): Not Active
Emax [8]: inactive
Stability [5]: Stable
EC50 (Mu-type opioid receptor [6]): 0.00188 µM

Oc1ccc2c3c1O[C@H]1c4ncc(-c5cn[nH]c5)cc4C[C@@]4(OCCCc5ccccc5)[C@@H](C2)N(CC2CC2)CC[C@]314
Ki (Mu-type opioid receptor [1]): 0.121 µM
Ki [2]: 0.257 µM
Ki [3]: 0.0298 µM
IC50 [4]: 0.00062 µM
EC50 ([7]; cho): Not Active
Emax [8]: inactive
Stability [5]: Stable
EC50 (Mu-type opioid receptor [6]): 0.00329 µM

Oc1ccc2c3c1O[C@H]1c4ncc(-c5ccc(F)c(F)c5)cc4C[C@@]4(OCCCc5ccccc5)[C@@H](C2)N(CC2CC2)CC[C@]314
Ki (Mu-type opioid receptor [1]): 0.37 µM
Ki [2]: 0.00752 µM
Ki [3]: 0.0712 µM
Stability [5]: Stable

CN(C)c1ccccc1-c1cnc2c(c1)C[C@@]1(OCCCc3ccccc3)[C@H]3Cc4ccc(O)c5c4[C@@]1(CCN3CC1CC1)[C@H]2O5
Ki (Mu-type opioid receptor [1]): 0.00697 µM
Ki [2]: 0.0696 µM
Ki [3]: 0.00796 µM
IC50 [4]: 0.0123 µM
EC50 ([7]; cho): Not Active
Emax [8]: inactive
Stability [5]: Stable
EC50 (Mu-type opioid receptor [6]): 0.233 µM

Oc1ccc2c3c1O[C@H]1c4ncc(-c5ccncc5)cc4C[C@@]4(OCCCc5ccccc5)[C@@H](C2)N(CC2CC2)CC[C@]314
Ki (Mu-type opioid receptor [1]): 0.0471 µM
Ki [2]: 0.00643 µM
Ki [3]: 0.0158 µM
IC50 [4]: 0.0183 µM
EC50 ([7]; cho): Not Active
Emax [8]: inactive
Stability [5]: Stable
EC50 (Mu-type opioid receptor [6]): 0.0563 µM

Cc1cccc(C)c1-c1cnc2c(c1)C[C@@]1(OCCCc3ccccc3)[C@H]3Cc4ccc(O)c5c4[C@@]1(CCN3CC1CC1)[C@H]2O5
Ki (Mu-type opioid receptor [1]): 0.249 µM
Ki [2]: 0.0934 µM
Ki [3]: 0.134 µM
IC50 [4]: 0.0516 µM
Stability [5]: Stable
EC50 (Mu-type opioid receptor [6]): 0.0034 µM

Cc1cccc(-c2cnc3c(c2)C[C@@]2(OCCCc4ccccc4)[C@H]4Cc5ccc(O)c6c5[C@@]2(CCN4CC2CC2)[C@H]3O6)c1
Ki (Mu-type opioid receptor [1]): 0.0244 µM
Ki [2]: 0.0268 µM
Ki [3]: 0.0176 µM
IC50 [4]: < 0.000169 µM
EC50 ([7]; cho): Not Active
Emax [8]: inactive
Stability [5]: Stable
EC50 (Mu-type opioid receptor [6]): 0.0206 µM

CN(C)c1cccc(-c2cnc3c(c2)C[C@@]2(OCCCc4ccccc4)[C@H]4Cc5ccc(O)c6c5[C@@]2(CCN4CC2CC2)[C@H]3O6)c1
Ki (Mu-type opioid receptor [1]): 0.0158 µM
Ki [2]: 0.0689 µM
Ki [3]: 0.0119 µM
IC50 [4]: 0.00376 µM
EC50 ([7]; cho): Not Active
Emax [8]: inactive
Stability [5]: Stable
EC50 (Mu-type opioid receptor [6]): 0.0015 µM

Cc1ccc(-c2cnc3c(c2)C[C@@]2(OCCCc4ccccc4)[C@H]4Cc5ccc(O)c6c5[C@@]2(CCN4CC2CC2)[C@H]3O6)cc1
Ki (Mu-type opioid receptor [1]): 0.191 µM
Ki [2]: 0.0344 µM
Ki [3]: 0.102 µM
IC50 [4]: 0.00363 µM
Stability [5]: Stable
EC50 (Mu-type opioid receptor [6]): 0.00231 µM

Oc1ccc2c3c1O[C@H]1c4ncc(-c5ccncn5)cc4C[C@@]4(OCCCc5ccccc5)[C@@H](C2)N(CC2CC2)CC[C@]314
Ki (Mu-type opioid receptor [1]): 0.0662 µM
Ki [2]: 0.0221 µM
Ki [3]: 0.0308 µM
IC50 [4]: 0.00071 µM
EC50 ([7]; cho): Not Active
Emax [8]: inactive
Stability [5]: Stable
EC50 (Mu-type opioid receptor [6]): > 3.33 µM

Oc1ccc2c3c1O[C@H]1c4ncc(-c5ccccc5)cc4C[C@@]4(OCCCC5CCOCC5)[C@@H](C2)N(CC2CC2)CC[C@]314
Ki [2]: 0.0645 µM
Ki [3]: 0.0248 µM
IC50 [4]: < 0.00017 µM
Stability [5]: Stable

CC(=O)Nc1cccc(-c2cnc3c(c2)C[C@@]2(OCCCc4ccccc4)[C@H]4Cc5ccc(O)c6c5[C@@]2(CCN4CC2CC2)[C@H]3O6)c1
Ki (Mu-type opioid receptor [1]): 0.337 µM
Ki [2]: > 3.33 µM
Ki [3]: 0.608 µM
Stability [5]: Stable
